As a reminder, the Ki is a measure of affinity in units of concentration, obtained from inhibition or displacement. As usually defined, the IC50 is the concentration that gives 50% inhibition.

Experimental findings from ChEMBL document CHEMBL1131602 (J Med Chem, 1998) are described below.

The nature of assay [1]: Ratio of inhibitions against mutant and wild type (WT) Plasmodium falciparum DHFR-TS.
Assay [2] concerns the target T1, Bifunctional dihydrofolate reductase-thymidylate synthase (Plasmodium falciparum K1, UniProt P13922). Kind of assay: Binding affinity was evaluated as inhibition of recombinant wild type (WT) Plasmodium falciparum DHFR-TS.
Target sequence in this assay (P13922 whole entry): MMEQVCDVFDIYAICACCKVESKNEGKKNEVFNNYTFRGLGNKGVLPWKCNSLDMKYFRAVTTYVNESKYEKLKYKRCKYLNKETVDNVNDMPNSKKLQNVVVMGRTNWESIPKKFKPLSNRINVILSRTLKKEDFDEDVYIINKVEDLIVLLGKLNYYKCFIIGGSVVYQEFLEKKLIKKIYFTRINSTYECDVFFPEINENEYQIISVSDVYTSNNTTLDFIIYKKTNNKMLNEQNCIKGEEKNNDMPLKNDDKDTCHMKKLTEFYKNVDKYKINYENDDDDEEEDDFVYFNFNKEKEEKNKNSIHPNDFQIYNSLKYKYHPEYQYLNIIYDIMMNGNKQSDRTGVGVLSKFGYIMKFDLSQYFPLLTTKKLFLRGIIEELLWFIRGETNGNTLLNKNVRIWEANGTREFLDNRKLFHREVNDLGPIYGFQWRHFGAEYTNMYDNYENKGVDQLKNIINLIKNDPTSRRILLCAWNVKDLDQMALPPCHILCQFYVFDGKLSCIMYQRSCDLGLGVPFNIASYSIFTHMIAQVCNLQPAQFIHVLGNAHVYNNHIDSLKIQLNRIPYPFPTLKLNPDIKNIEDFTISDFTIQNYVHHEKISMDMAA
Assay [3] addresses T1, Bifunctional dihydrofolate reductase-thymidylate synthase. Put plainly: Binding affinity was evaluated as inhibition of mutant (C59R + S108N) Plasmodium falciparum DHFR-TS.
Target sequence in this assay (P13922 whole entry): as above
The subject of assay [4] is Plasmodium falciparum. Put plainly: In vitro inhibition of Plasmodium falciparum HB3 (S108N) culture. The format is functional, organism-based.
Assay [5] addresses T1, Bifunctional dihydrofolate reductase-thymidylate synthase. Put plainly: Inhibitory activity against recombinant wild type (WT) Plasmodium falciparum DHFR-TS.
Target sequence in this assay (P13922 whole entry): as above
For assay [6], the system named is Plasmodium falciparum. Put plainly: In vitro inhibition of Plasmodium falciparum K1 (S108N + C59R) culture. The format is functional, organism-based.
Assay [7] addresses T1, Bifunctional dihydrofolate reductase-thymidylate synthase. Put plainly: Inhibitory activity against mutant Plasmodium falciparum DHFR-TS.
Target sequence in this assay (P13922 whole entry, looked up): as the sequence (P13922 whole entry) above

Take `NC(=O)c1ccc[n+]([C@H]2O[C@@H](COP(=O)([O-])OP(=O)(O)OC[C@H]3O[C@@H](n4cnc5c(N)ncnc54)[C@H](OP(=O)(O)O)[C@@H]3O)[C@H](O)[C@@H]2O)c1` [NICOTINAMIDE ADENINE DINUCLEOTIDE PHOSPHATE]: the Ratio in assay [1] is 3.09. The Ki in assay [2] was 4.7 nM; in assay [3] it was 14.5 nM.
Regarding `CCc1nc(N)nc(N)c1-c1cccc(OC)c1`, the Ratio in assay [1] was found to be 13.1. The IC50 with Plasmodium falciparum [4] came out at 0.2 nM; in assay [5] it was 9.3 nM; with Plasmodium falciparum [6], 3.7 nM; in assay [7], 73 nM. Besides, the inhibition constant Ki is 1.07 nM in assay [2], 14 nM in assay [3] and 14 nM in assay [7].
With `CC1(C)N=C(N)N=C(N)N1c1ccc(Cl)cc1` [CYCLOGUANIL], the Ratio in assay [1] worked out at 31.5. Besides, the inhibition constant (Ki) in assay [2] is 2.6 nM; in assay [3], 82.1 nM.
As to `CCc1nc(N)nc(N)c1-c1ccc(Cl)cc1` [PYRIMETHAMINE], the values for the 50% inhibitory concentration (IC50) in the assay on Plasmodium falciparum [4] and in the assay on Plasmodium falciparum [6] were 1.2 nM and 10.2 nM, respectively.
In the case of `CCc1nc(N)nc(N)c1-c1cccc(Cl)c1`, the Ratio in assay [1] was determined as 8. Further, the Ki in assay [2] is 0.3 nM; in assay [3] it was 2.4 nM. Moreover, the IC50 in assay [5] was 2.7 nM; in assay [7], 12.7 nM.
